{"source": "paper PMC13426457", "about": "“Cryo-EM structures of apo, agonist- and antagonist-bound heteromeric kainate receptors” (Science Advances, 2026)", "target": "T1, GluK2 (Rattus norvegicus, UniProt P42260, A518T/I567V/C576V/C595S)", "T1 construct": "gene Grik2", "T1 sequence (P42260 32-908 A518T/I567V/C576V/C595S)": "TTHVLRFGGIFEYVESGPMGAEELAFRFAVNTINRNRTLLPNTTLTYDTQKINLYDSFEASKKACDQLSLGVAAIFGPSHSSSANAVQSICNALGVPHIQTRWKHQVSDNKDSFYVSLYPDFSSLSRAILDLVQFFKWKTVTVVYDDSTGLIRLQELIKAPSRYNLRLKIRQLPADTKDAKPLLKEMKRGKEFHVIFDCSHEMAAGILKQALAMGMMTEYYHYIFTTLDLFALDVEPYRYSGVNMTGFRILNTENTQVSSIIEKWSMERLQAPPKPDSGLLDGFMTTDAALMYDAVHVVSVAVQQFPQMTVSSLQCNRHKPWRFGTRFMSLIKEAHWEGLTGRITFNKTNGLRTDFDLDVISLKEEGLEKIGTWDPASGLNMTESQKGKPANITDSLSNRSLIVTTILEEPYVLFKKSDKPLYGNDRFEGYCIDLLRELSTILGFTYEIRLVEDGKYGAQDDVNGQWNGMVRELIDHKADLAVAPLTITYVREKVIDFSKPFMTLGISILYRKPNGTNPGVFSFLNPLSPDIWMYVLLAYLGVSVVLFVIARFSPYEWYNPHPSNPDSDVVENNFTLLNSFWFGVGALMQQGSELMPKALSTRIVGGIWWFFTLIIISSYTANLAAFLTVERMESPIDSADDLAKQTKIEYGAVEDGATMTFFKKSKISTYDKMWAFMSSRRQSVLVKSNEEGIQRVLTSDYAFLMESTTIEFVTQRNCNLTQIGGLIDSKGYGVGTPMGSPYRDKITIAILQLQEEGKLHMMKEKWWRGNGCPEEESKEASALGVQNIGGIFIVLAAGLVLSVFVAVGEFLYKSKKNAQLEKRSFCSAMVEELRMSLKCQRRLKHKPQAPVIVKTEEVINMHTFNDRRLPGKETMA", "T1 sequence (Q63273 with tags, fused parts or gaps T501A/C559V/C578S/C619I/C813A partner)": "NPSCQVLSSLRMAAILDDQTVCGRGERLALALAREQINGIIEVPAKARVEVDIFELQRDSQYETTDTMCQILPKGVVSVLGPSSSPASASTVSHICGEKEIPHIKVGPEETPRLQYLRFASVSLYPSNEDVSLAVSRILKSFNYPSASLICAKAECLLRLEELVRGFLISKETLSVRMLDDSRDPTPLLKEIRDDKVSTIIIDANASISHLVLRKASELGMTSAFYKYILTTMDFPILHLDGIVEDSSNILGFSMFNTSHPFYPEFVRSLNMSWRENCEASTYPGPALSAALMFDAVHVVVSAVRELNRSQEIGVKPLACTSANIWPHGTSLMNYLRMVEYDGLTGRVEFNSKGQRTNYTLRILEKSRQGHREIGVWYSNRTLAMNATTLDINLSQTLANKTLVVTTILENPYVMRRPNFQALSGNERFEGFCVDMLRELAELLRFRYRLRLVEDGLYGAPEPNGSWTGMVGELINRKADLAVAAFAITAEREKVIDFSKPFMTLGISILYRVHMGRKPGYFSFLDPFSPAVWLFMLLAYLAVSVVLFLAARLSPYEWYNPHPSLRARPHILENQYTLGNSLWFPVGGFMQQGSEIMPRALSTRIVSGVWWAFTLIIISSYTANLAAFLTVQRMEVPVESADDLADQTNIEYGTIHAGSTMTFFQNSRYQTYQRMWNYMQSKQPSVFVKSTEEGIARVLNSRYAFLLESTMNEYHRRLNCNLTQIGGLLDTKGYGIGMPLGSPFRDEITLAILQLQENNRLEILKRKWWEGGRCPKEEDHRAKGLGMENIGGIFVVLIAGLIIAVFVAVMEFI", "data": [{"smiles": "Cc1cn(C[C@H](N)C(=O)O)c(=O)n(Cc2ccsc2C(=O)O)c1=O", "note": "[UBP310, (S)-1-(2-amino-2-carboxyethyl)-3-(2-carboxythiophene-3-yl-methyl)-5-methylpyrimidine-2,4-dione]", "values": [{"measurement": "% current reduction at 0.5 mM", "value": "56.2 ± 21.0 % current reduction at 0.5 mM"}]}]}
